# Where a SMILES comes first, the peptide text is derived from it.
# How the values were obtained:
# [1] = tested on: Streptococcus Pyogenes (ATCC 19616); assay: Broth dilution assay (MIC); type: cell-based; conditions: 50% MHB, turbidity, range of triplicate experiments
# [2] = tested on: Bacillus Cereus ATCC 9193; assay: Broth dilution assay (MIC); type: cell-based; conditions: 50% MHB, turbidity, range of triplicate experiments
# [3] = tested on: Bacillus Lichen ATCC 21424; assay: Broth dilution assay (MIC); type: cell-based, Bacillus licheniformis; conditions: 50% MHB, turbidity, range of triplicate experiments
# [4] = tested on: Enterococcus Faecalis (ATCC 29213); assay: Broth dilution assay (MIC); type: cell-based; conditions: 50% MHB, turbidity, range of triplicate experiments
# [5] = tested on: Bacillus Subtilis (ATCC6633); assay: Broth dilution assay (MIC); type: cell-based; conditions: 50% MHB, turbidity, range of triplicate experiments
# [6] = tested on: Bacillus Globigii (TNO); type: cell-based; conditions: broth dilution, 50% MHB, turbidity; range of triplicate experiments
# [7] = tested on: serine proteases, elastase, and aminopeptidases; conditions: cited from earlier work
# Excerpt: Current literature on PR-39 has shifted from an initial focus on antibacterial activity to potential new roles in host defence mechanisms.
# [8] = tested on: E.coli ATCC 4157; assay: Broth dilution assay (MIC); type: cell-based, Escherichia coli; conditions: 50% MHB, turbidity, range of triplicate experiments
# [9] = tested on: E. coli; assay: Colony counting assay (MBC); type: cell-based, Escherichia coli; conditions: 3 h 37°C, 10 mM phosphate buffer pH 7.0 with 1/1000 TSB, MBC = <100 CFU/ml; for MBC E. coli 0 mM NaCl: 2×10^6 CFU/ml, no NaCl added; for MBC E. coli 100 mM NaCl: 100 mM NaCl added
# Protocol: (§1) Overnight cultures of E. coli and B. globigii were grown in TSB medium at 37°C to mid-logarithmic phase. The antimicrobial activity of the PR-39 derived peptides was tested using colony counting as described before. In short, cells were collected via centrifugation at 900×g for 10 minutes, and resuspended in 10 mM phosphate buffer, pH 7.0, containing 1/1000 TSB medium (Buffer A). Cells were further diluted to 2×10^6 CFU/ml in the same buffer. Next, 25 µl of cell suspension was mixed with an equal volume of different concentrations of peptides ranging from 0–80 µM, and incubated further for 3 hours at 37°C. Ten-fold dilutions were prepared in minimal buffer containing 1/1000 TSB medium in distilled water, and 100 µl from each dilution was spread on TSA plates (Trypton Soy Agar; Oxoid). The plates were incubated at 37°C and the number of colonies was counted 24 h later to determine the number of surviving bacteria. Minimal Bactericidal Concentration (MBC) was defined as <100 CFU/ml corresponding to the detection limit of this assay. To determine the dependence of activity of PR-39 on the energy status of the cell, E. coli was incubated 30 min at 37°C in the presence of the metabolic uncouplers 50 µM carbonyl cyanide m-chlorophenylhydrazone (CCCP), or 5 mM 2,4-dinitrophenol (DNP). Subsequently, an antimicrobial activity assay was performed as described above.
# [10] = tested on: E.coli K12; assay: Broth dilution assay (MIC); type: cell-based, Escherichia coli; conditions: 50% MHB, turbidity, range of triplicate experiments
# [11] = tested on: E.coli ATCC25922; assay: Broth dilution assay (MIC); type: cell-based, Escherichia coli; conditions: 50% MHB, turbidity, range of triplicate experiments
# [12] = tested on: E.coli K88 403; conditions: broth dilution, 50% MHB, turbidity; range of triplicate experiments
# Protocol: Initial screening for antibacterial activity of PR-39 was performed using broth dilution assays. Bacteria were grown to mid-logarithmic phase in MHB medium. The optical density was measured and bacteria were diluted to 2×10^6 CFU/ml. Subsequently 25 µl bacteria were incubated with 25 µl peptide in polypropylene 96 wells plates and incubated at 37°C. After 3 h 200 µl MHD medium was added and samples were further incubated overnight. Minimal inhibitory concentrations (MIC) were determined by turbidity measurement of the wells.
# [13] = tested on: B. globigii; type: cell-based, Bacillus globigii; conditions: colony counting, 3 h 37°C, 10 mM phosphate buffer pH 7.0 with 1/1000 TSB, MBC = <100 CFU/ml; for MBC B. globigii 0 mM NaCl: 2×10^6 CFU/ml, no NaCl added; for MBC B. globigii +100 mM NaCl: 100 mM NaCl added
# Protocol: as §1
# [14] = tested on: Enterococcus Faeceum E155; type: cell-based; conditions: broth dilution, 50% MHB, turbidity; range of triplicate experiments
Compound,MBC E. coli 0 mM NaCl [9] [µM],MBC E. coli 100 mM NaCl [9] [µM],MBC B. globigii 0 mM NaCl [13] [µM],MBC B. globigii +100 mM NaCl [13] [µM],other results
CC[C@H](C)[C@H](NC(=O)[C@H](CCCNC(=N)N)NC(=O)[C@@H]1CCCN1C(=O)[C@@H]1CCCN1C(=O)[C@H](CC(C)C)NC(=O)[C@H](CCCNC(=N)N)NC(=O)[C@@H]1CCCN1C(=O)[C@@H]1CCCN1C(=O)[C@H](Cc1ccccc1)NC(=O)[C@H](Cc1ccccc1)NC(=O)[C@@H]1CCCN1C(=O)[C@@H]1CCCN1C(=O)[C@@H]1CCCN1C(=O)[C@H](CCCNC(=N)N)NC(=O)[C@@H]1CCCN1C(=O)[C@H](CCCNC(=N)N)NC(=O)[C@@H]1CCCN1C(=O)[C@H](CC(C)C)NC(=O)[C@H](Cc1ccc(O)cc1)NC(=O)[C@@H]1CCCN1C(=O)[C@@H]1CCCN1C(=O)[C@H](CCCNC(=N)N)NC(=O)[C@@H]1CCCN1C(=O)[C@H](CCCNC(=N)N)NC(=O)[C@H](CCCNC(=N)N)NC(=O)[C@@H](N)CCCNC(=N)N)C(=O)N1CCC[C@H]1C(=O)N1CCC[C@H]1C(=O)NCC(=O)N[C@@H](Cc1ccccc1)C(=O)N1CCC[C@H]1C(=O)N1CCC[C@H]1C(=O)N[C@@H](CCCNC(=N)N)C(=O)N[C@@H](Cc1ccccc1)C(=O)N1CCC[C@H]1C(=O)N1CCC[C@H]1C(=O)N[C@@H](CCCNC(=N)N)C(=O)N[C@@H](Cc1ccccc1)C(=O)N1CCC[C@H]1C(=O)O [PR-39] (H-RRRPRPPYLPRPRPPPFFPPRLPPRIPPGFPPRFPPRFP-OH),1.25,2.5,2.5,5,"MIC [1]: 2.5 to 5 µM; MIC [2]: 5 to 20 µM; MIC [3]: 5 µM; MIC [4]: 10 µM; MIC [5]: 2.5 to 5 µM; MIC [6]: 1.25 to 5 µM; resistance to proteases [7]: resistant to serine proteases, elastase, and aminopeptidases; MIC [8]: 1.25 to 2.5 µM; MIC [10]: 1.25 to 2.5 µM; MIC [11]: 2.5 to 10 µM; MIC [12]: 1.25 to 2.5 µM; MIC [14]: 1.25 to 2.5 µM"
CC[C@H](C)[C@H](NC(=O)[C@H](CCCNC(=N)N)NC(=O)[C@@H]1CCCN1C(=O)[C@@H]1CCCN1C(=O)[C@H](CC(C)C)NC(=O)[C@H](CCCNC(=N)N)NC(=O)[C@@H]1CCCN1C(=O)[C@@H]1CCCN1C(=O)[C@H](Cc1ccccc1)NC(=O)[C@H](Cc1ccccc1)NC(=O)[C@@H]1CCCN1)C(=O)N1CCC[C@H]1C(=O)N1CCC[C@H]1C(=O)NCC(=O)N[C@@H](Cc1ccccc1)C(=O)N1CCC[C@H]1C(=O)N1CCC[C@H]1C(=O)N[C@@H](CCCNC(=N)N)C(=O)N[C@@H](Cc1ccccc1)C(=O)N1CCC[C@H]1C(=O)N1CCC[C@H]1C(=O)N[C@@H](CCCNC(=N)N)C(=O)N[C@@H](Cc1ccccc1)C(=O)N1CCC[C@H]1C(=O)O [PR-39(16–39)] (H-PFFPPRLPPRIPPGFPPRFPPRFP-OH),10,>40,10,>40,
CC[C@H](C)[C@H](NC(=O)[C@H](CCCNC(=N)N)NC(=O)[C@@H]1CCCN1C(=O)[C@@H]1CCCN1C(=O)[C@H](CC(C)C)NC(=O)[C@H](CCCNC(=N)N)NC(=O)[C@@H]1CCCN1C(=O)[C@@H]1CCCN1C(=O)[C@H](Cc1ccccc1)NC(=O)[C@H](Cc1ccccc1)NC(=O)[C@@H]1CCCN1C(=O)[C@@H]1CCCN1C(=O)[C@@H]1CCCN1C(=O)[C@H](CCCNC(=N)N)NC(=O)[C@@H]1CCCN1C(=O)[C@H](CCCNC(=N)N)NC(=O)[C@@H]1CCCN1C(=O)[C@H](CC(C)C)NC(=O)[C@H](Cc1ccc(O)cc1)NC(=O)[C@@H]1CCCN1C(=O)[C@@H]1CCCN1C(=O)[C@H](CCCNC(=N)N)NC(=O)[C@@H]1CCCN1C(=O)[C@H](CCCNC(=N)N)NC(=O)[C@H](CCCNC(=N)N)NC(=O)[C@@H](N)CCCNC(=N)N)C(=O)O [PR-39(1–26)] (H-RRRPRPPYLPRPRPPPFFPPRLPPRI-OH),2.5,1.25,5,5,
CC(C)C[C@H](NC(=O)[C@H](CCCNC(=N)N)NC(=O)[C@@H]1CCCN1C(=O)[C@@H]1CCCN1C(=O)[C@H](Cc1ccccc1)NC(=O)[C@H](Cc1ccccc1)NC(=O)[C@@H]1CCCN1C(=O)[C@@H]1CCCN1C(=O)[C@@H]1CCCN1C(=O)[C@H](CCCNC(=N)N)NC(=O)[C@@H]1CCCN1C(=O)[C@H](CCCNC(=N)N)NC(=O)[C@@H]1CCCN1C(=O)[C@H](CC(C)C)NC(=O)[C@H](Cc1ccc(O)cc1)NC(=O)[C@@H]1CCCN1C(=O)[C@@H]1CCCN1C(=O)[C@H](CCCNC(=N)N)NC(=O)[C@@H]1CCCN1C(=O)[C@H](CCCNC(=N)N)NC(=O)[C@H](CCCNC(=N)N)NC(=O)[C@@H](N)CCCNC(=N)N)C(=O)O [PR-39(1–22)] (H-RRRPRPPYLPRPRPPPFFPPRL-OH),1.25,2.5,2.5,10,
CC(C)C[C@H](NC(=O)[C@H](Cc1ccc(O)cc1)NC(=O)[C@@H]1CCCN1C(=O)[C@@H]1CCCN1C(=O)[C@H](CCCNC(=N)N)NC(=O)[C@@H]1CCCN1C(=O)[C@H](CCCNC(=N)N)NC(=O)[C@H](CCCNC(=N)N)NC(=O)[C@@H](N)CCCNC(=N)N)C(=O)N1CCC[C@H]1C(=O)N[C@@H](CCCNC(=N)N)C(=O)N1CCC[C@H]1C(=O)N[C@@H](CCCNC(=N)N)C(=O)N1CCC[C@H]1C(=O)N1CCC[C@H]1C(=O)N1CCC[C@H]1C(=O)N[C@@H](Cc1ccccc1)C(=O)N[C@@H](Cc1ccccc1)C(=O)O [PR-39(1–18)] (H-RRRPRPPYLPRPRPPPFF-OH),5,20,2.5,10,
CC[C@H](C)[C@H](NC(=O)[C@H](CCCNC(=N)N)NC(=O)[C@@H]1CCCN1)C(=O)N1CCC[C@H]1C(=O)N1CCC[C@H]1C(=O)NCC(=O)N[C@@H](Cc1ccccc1)C(=O)N1CCC[C@H]1C(=O)N1CCC[C@H]1C(=O)N[C@@H](CCCNC(=N)N)C(=O)N[C@@H](Cc1ccccc1)C(=O)N1CCC[C@H]1C(=O)N1CCC[C@H]1C(=O)N[C@@H](CCCNC(=N)N)C(=O)N[C@@H](Cc1ccccc1)C(=O)N1CCC[C@H]1C(=O)O [PR-39(24–39)] (H-PRIPPGFPPRFPPRFP-OH),40,>40,40,>40,
CC[C@H](C)[C@H](NC(=O)[C@H](CCCNC(=N)N)NC(=O)[C@@H]1CCCN1C(=O)[C@@H]1CCCN1C(=O)[C@H](CC(C)C)NC(=O)[C@H](CCCNC(=N)N)NC(=O)[C@@H]1CCCN1)C(=O)N1CCC[C@H]1C(=O)N1CCC[C@H]1C(=O)NCC(=O)N[C@@H](Cc1ccccc1)C(=O)N1CCC[C@H]1C(=O)N1CCC[C@H]1C(=O)N[C@@H](CCCNC(=N)N)C(=O)N[C@@H](Cc1ccccc1)C(=O)N1CCC[C@H]1C(=O)N1CCC[C@H]1C(=O)N[C@@H](CCCNC(=N)N)C(=O)N[C@@H](Cc1ccccc1)C(=O)N1CCC[C@H]1C(=O)O [PR-39(20–39)] (H-PRLPPRIPPGFPPRFPPRFP-OH),5,>40,20,>40,
CC(C)C[C@H](NC(=O)[C@H](Cc1ccc(O)cc1)NC(=O)[C@@H]1CCCN1C(=O)[C@@H]1CCCN1C(=O)[C@H](CCCNC(=N)N)NC(=O)[C@@H]1CCCN1C(=O)[C@H](CCCNC(=N)N)NC(=O)[C@H](CCCNC(=N)N)NC(=O)[C@@H](N)CCCNC(=N)N)C(=O)N1CCC[C@H]1C(=O)N[C@@H](CCCNC(=N)N)C(=O)N1CCC[C@H]1C(=O)N[C@@H](CCCNC(=N)N)C(=O)N1CCC[C@H]1C(=O)N1CCC[C@H]1C(=O)O [PR-39(1–15)] (H-RRRPRPPYLPRPRPP-OH),5,>40,5,>40,

# Reference: publication PMC3995882, “Antimicrobial and Immunomodulatory Activities of PR-39 Derived Peptides” (PLoS ONE, 2014)
